Test results reported in article doi:10.1101/2021.04.08.439011v1 (biorxiv, 2021).

Assays:
AMPK-alpha2 = AMPK-alpha2 (Homo sapiens, UniProt P54646); details: 0.1 µM; binder
CDC2L2 = CDC2L2 (Homo sapiens, UniProt Q9UQ88); details: 0.1 µM; binder
CLK1 = CLK1 (Homo sapiens, UniProt P49759); details: 0.1 µM; binder
CSNK1G1 = CSNK1G1 (Homo sapiens, UniProt Q9HCP0); details: 0.1 µM; binder
EGFR(L858R,T790M) = EGFR(L858R,T790M) (Homo sapiens, UniProt P00533, L858R/T790M); details: 0.1 µM; binder
EPHB1 = EPHB1 (Homo sapiens, UniProt P54762); details: 0.1 µM; binder
GRK2 = GRK2 (Homo sapiens, UniProt P25098); details: 0.1 µM; binder
KIT(V559D,V654A) = KIT(V559D,V654A) (Homo sapiens, UniProt P10721, V559D/V654A); details: 0.1 µM; binder
MAP3K12 = MAP3K12 (Homo sapiens, UniProt Q12852); details: 0.1 µM; binder
MAP4K5 = MAP4K5 (Homo sapiens, UniProt Q9Y4K4); details: 0.1 µM; binder
PIK3C2G = PIK3C2G (Homo sapiens, UniProt O75747); details: 0.1 µM; binder
PIK3CA(E545A) = PIK3CA(E545A) (Homo sapiens, UniProt P42336, E545A); details: 0.1 µM; binder
TIE2 = TIE2 (Homo sapiens, UniProt Q02763); details: 0.1 µM; binder
TRKC = TRKC (Homo sapiens, UniProt Q16288); details: 0.1 µM; binder
ACVR1 = ACVR1 (Homo sapiens, UniProt Q04771); details: 1 µM; binder
BMPR2 = BMPR2 (Homo sapiens, UniProt Q13873); details: 1 µM; binder
BUB1 = BUB1 (Homo sapiens, UniProt O43683); details: 1 µM; binder
CSNK1G2 = CSNK1G2 (Homo sapiens, UniProt P78368); details: 1 µM; binder
DLK = DLK (Homo sapiens, UniProt Q12852); details: 1 µM; binder
DYRK1A = DYRK1A (Homo sapiens, UniProt Q13627); details: 1 µM; binder
FYN = FYN (Homo sapiens, UniProt P06241); details: 1 µM; binder
GRK3 = GRK3 (Homo sapiens, UniProt P35626); details: 1 µM; binder
GRK7 = GRK7 (Homo sapiens, UniProt Q8WTQ7); details: 1 µM; binder
MKNK2 = MKNK2 (Homo sapiens, UniProt Q9HBH9); details: 1 µM; binder
MYLK3 = MYLK3 (Homo sapiens, UniProt Q32MK0); details: 1 µM; binder
NIM1 = NIM1 (Homo sapiens, UniProt Q8IY84); details: 1 µM; binder
PIP4K2B = PIP4K2B (Homo sapiens, UniProt P78356); details: 1 µM; binder
PLK1 = PLK1 (Homo sapiens, UniProt P53350); details: 1 µM; binder
PRKX = PRKX (Homo sapiens, UniProt P51817); details: 1 µM; binder
TEC = TEC (Homo sapiens, UniProt P42680); details: 1 µM; binder

Chain of KIT(V559D,V654A) (P10721 whole entry V559D/V654A): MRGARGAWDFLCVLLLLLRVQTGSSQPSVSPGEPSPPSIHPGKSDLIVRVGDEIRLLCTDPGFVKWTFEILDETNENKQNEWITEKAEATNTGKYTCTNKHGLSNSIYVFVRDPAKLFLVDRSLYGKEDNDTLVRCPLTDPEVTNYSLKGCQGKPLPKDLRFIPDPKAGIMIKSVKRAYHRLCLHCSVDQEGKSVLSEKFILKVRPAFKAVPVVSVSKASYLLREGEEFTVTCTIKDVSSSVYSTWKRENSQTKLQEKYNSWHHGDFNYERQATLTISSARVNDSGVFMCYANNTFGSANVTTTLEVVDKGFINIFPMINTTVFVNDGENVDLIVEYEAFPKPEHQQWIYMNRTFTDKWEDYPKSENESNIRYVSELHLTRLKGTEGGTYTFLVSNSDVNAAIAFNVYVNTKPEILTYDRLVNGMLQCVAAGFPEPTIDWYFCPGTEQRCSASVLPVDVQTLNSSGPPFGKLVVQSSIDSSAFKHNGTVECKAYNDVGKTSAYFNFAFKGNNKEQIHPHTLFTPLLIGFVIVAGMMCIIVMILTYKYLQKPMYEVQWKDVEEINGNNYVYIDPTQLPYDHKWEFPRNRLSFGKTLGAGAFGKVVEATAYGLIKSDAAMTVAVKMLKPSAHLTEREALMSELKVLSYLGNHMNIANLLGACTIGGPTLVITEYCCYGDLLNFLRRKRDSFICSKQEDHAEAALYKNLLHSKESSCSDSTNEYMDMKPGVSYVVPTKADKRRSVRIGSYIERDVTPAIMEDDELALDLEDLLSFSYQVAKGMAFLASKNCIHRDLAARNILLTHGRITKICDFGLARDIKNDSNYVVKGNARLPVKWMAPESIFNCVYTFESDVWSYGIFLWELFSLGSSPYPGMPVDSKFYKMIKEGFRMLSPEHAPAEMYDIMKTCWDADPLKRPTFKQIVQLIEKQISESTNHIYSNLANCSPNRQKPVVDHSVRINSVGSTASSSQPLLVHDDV
Chain of MAP4K5 (Q9Y4K4 whole entry): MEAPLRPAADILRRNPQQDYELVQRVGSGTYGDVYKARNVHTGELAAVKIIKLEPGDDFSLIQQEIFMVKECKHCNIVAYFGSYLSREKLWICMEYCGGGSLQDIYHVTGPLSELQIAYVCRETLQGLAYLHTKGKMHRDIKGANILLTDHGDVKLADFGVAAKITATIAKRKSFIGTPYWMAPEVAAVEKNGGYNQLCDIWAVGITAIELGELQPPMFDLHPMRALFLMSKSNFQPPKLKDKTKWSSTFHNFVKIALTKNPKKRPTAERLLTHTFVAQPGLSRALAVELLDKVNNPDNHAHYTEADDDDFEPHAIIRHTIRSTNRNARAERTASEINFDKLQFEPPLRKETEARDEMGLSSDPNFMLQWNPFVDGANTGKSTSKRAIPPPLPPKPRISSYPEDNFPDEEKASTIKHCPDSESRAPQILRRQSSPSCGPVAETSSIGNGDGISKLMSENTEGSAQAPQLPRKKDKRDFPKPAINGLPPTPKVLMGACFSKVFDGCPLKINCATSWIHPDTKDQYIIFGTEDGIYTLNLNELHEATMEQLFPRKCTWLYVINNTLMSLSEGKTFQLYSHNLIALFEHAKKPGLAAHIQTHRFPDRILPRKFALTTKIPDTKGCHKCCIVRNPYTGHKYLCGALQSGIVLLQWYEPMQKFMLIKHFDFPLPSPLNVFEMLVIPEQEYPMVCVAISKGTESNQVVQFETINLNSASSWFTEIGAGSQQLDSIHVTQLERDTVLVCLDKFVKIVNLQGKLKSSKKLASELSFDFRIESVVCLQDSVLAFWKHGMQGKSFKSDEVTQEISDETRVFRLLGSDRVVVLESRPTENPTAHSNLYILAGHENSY
Chain of GRK7 (Q8WTQ7 whole entry): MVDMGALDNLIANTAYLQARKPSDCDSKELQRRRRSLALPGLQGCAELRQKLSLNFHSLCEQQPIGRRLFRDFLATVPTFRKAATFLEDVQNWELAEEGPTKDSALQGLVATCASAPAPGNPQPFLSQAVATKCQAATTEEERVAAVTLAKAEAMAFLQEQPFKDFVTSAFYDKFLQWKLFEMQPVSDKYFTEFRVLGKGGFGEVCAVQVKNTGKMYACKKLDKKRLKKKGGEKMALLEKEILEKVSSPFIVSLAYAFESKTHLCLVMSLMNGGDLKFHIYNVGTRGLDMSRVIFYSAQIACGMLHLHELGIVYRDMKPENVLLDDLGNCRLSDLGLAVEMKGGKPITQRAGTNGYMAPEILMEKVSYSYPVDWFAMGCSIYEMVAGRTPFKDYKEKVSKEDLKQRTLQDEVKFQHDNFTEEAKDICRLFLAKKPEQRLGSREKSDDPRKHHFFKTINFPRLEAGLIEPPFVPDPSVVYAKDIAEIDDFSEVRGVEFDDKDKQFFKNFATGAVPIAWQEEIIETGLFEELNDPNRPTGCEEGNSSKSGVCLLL
Chain of NIM1 (Q8IY84 whole entry): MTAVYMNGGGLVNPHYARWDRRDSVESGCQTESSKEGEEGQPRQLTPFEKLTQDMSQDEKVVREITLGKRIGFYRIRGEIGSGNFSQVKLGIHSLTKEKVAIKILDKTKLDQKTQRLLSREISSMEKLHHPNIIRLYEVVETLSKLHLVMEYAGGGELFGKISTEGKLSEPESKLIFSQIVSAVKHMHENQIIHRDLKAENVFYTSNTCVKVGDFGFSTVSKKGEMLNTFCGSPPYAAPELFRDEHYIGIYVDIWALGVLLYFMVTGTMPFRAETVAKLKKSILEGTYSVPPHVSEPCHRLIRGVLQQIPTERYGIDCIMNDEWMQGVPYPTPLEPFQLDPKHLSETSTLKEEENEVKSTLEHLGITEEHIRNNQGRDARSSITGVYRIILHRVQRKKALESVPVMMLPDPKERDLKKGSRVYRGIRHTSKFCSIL
Chain of MAP3K12 (Q12852 whole entry): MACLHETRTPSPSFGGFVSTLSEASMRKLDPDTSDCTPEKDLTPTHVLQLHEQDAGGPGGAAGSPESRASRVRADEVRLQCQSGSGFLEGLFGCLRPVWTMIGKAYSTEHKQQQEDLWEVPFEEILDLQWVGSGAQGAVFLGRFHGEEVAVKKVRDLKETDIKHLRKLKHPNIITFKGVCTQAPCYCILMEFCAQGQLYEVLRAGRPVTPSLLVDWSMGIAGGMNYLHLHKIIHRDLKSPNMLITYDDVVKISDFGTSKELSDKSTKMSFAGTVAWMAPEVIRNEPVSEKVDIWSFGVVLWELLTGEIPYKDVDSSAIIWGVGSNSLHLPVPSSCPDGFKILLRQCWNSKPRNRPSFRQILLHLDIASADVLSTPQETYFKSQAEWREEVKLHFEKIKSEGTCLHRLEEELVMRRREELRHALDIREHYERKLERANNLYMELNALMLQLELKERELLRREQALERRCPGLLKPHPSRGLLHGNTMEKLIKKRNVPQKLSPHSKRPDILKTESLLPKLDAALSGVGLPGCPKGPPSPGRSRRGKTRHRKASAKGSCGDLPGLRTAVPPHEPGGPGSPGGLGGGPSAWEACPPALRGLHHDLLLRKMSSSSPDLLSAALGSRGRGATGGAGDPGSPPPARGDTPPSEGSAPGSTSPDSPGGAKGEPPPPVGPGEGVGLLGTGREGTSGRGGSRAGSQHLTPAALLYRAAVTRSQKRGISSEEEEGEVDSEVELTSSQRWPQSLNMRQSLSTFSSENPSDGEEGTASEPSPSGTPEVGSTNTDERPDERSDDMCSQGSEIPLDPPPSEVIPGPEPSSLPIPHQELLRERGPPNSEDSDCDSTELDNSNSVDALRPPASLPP
Chain of DLK (Q12852 whole entry): as above
Chain of EPHB1 (P54762 whole entry): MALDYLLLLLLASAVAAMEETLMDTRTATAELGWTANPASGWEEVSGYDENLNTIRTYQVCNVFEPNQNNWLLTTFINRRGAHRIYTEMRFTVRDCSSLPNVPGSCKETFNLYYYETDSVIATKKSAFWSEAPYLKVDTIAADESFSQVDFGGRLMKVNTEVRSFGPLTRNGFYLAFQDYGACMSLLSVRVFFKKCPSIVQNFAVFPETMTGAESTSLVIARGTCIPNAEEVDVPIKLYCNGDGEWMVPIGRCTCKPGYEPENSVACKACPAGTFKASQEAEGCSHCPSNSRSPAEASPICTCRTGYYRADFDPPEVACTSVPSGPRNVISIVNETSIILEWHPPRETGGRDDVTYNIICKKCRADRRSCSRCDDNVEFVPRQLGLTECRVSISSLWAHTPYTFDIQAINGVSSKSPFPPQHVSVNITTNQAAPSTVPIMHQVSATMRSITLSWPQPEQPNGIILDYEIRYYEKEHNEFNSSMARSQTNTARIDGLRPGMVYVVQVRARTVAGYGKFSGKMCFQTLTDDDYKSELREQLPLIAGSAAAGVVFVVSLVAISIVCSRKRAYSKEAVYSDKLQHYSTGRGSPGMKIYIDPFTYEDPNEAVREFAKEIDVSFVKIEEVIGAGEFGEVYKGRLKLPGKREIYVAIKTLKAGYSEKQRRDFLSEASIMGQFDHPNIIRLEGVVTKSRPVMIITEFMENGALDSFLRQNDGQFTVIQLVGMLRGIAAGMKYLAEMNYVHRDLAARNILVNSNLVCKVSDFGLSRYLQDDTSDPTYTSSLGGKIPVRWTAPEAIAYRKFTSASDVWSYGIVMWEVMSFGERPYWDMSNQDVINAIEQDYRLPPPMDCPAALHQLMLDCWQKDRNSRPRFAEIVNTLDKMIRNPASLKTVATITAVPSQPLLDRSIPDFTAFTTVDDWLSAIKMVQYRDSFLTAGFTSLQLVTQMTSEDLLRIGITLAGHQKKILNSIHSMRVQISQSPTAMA
Chain of PRKX (P51817 whole entry): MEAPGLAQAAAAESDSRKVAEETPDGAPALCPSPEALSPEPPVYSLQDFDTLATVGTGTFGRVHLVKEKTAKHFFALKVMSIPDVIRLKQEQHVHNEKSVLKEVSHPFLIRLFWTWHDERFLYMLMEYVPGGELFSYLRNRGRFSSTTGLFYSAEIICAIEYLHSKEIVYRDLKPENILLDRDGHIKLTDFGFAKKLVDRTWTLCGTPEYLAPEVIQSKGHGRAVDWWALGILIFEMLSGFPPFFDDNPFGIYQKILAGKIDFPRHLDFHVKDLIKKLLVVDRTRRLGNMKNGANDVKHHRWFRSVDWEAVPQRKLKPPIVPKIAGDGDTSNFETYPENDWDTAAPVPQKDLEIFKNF

CNc1ncc2cc(-c3ccc(-c4cccc(C)n4)cc3Cl)c(=O)n(C[C@H]3OC[C@H](N)CO3)c2n1 [compound 6, G-5555]
Percent Control (AMPK-alpha2): 93%
Percent Control (CDC2L2): 100%
Percent Control (CLK1): 100%
Percent Control (CSNK1G1): 100%
Percent Control (EGFR(L858R,T790M)): 100%
Percent Control (EPHB1): 100%
Percent Control (GRK2): 97%
Percent Control (KIT(V559D,V654A)): 77%
Percent Control (MAP3K12): 100%
Percent Control (MAP4K5): 18%
Percent Control (PIK3C2G): 95%
Percent Control (PIK3CA(E545A)): 88%
Percent Control (TIE2): 87%
Percent Control (TRKC): 84%
Percent Control (ACVR1): 100%
Percent Control (BMPR2): 100%
Percent Control (BUB1): 89%
Percent Control (CSNK1G2): 83%
Percent Control (DLK): 100%
Percent Control (DYRK1A): 100%
Percent Control (FYN): 87%
Percent Control (GRK3): 72%
Percent Control (GRK7): 89%
Percent Control (MKNK2): 97%
Percent Control (MYLK3): 100%
Percent Control (NIM1): 100%
Percent Control (PIP4K2B): 87%
Percent Control (PLK1): 94%
Percent Control (PRKX): 100%
Percent Control (TEC): 100%
